From patent US11434242B2, “Dopamine-b-hydroxylase inhibitors” (BIAL-PORTELA & Cª, S.A., priority 2017, dated 2022)

Biological target: T1, Dopamine beta hydroxylase (Homo sapiens, UniProt P09172)
T1 construct: 125 μl of plasma; tissue Instituto Português do Sangue Transplantação; host or cells: human plasma from healthy donors
T1 sequence (P09172 40-617 limits assumed): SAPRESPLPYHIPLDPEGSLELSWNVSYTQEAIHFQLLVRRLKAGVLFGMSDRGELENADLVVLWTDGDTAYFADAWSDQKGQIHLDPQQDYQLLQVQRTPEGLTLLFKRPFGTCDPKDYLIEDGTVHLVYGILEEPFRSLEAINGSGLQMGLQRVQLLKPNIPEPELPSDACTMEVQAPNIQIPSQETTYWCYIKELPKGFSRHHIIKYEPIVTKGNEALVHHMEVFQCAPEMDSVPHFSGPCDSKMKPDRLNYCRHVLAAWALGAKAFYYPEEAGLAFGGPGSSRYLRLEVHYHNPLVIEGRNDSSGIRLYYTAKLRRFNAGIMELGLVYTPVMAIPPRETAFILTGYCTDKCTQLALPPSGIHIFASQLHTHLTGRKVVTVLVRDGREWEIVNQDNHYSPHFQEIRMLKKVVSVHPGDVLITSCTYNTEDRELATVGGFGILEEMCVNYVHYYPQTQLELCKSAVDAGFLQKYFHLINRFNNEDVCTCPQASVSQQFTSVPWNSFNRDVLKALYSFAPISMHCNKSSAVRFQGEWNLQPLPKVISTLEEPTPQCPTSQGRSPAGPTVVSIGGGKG
Assay: Dopamine beta hydroxylase activity in human plasma
Assay type: biochemical
Settings: for Plasma (0.01 μM), activity in % of control: inhibitor 0.01 μM; for Plasma (0.1 μM), activity in % of control: inhibitor 0.1 μM; for Plasma (1 μM), activity in % of control: inhibitor 1 μM
How it was run: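 Healthy-donor human plasma pre-incubated 10 min at 37° C with compound at final 10, 100 or 1000 nM in pH 5.0 acetate buffer with ascorbate, fumarate, pargyline, N-ethylmaleimide, catalase and copper sulfate. Tyramine substrate then added for 45 min; octopamine formed was isolated by SCX cartridge, periodate-converted and read at 330 nm; activity given as % control.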

SMILES | Plasma (0.01 μM), activity in % of control | Plasma (0.1 μM), activity in % of control | Plasma (1 μM), activity in % of control
O=C(Cc1[nH]c(=S)n2c1C[C@H](c1c(F)ccc(Br)c1F)C2)NCc1ccccn1 [Example 139, (R)-2-(6-(3-bromo-2,6-difluorophenyl)-3-thioxo-2,5,6,7-tetrahydro-3H-pyrrolo[1,2-c]imidazol-1-yl)-N-(pyridin-2-ylmethyl)acetamide] | 77.8 % of control | 20.8 % of control | –
O=C(Cc1[nH]c(=S)n2c1[C@@H]1C[C@]1(c1cc(Br)ccc1F)C2)NCCc1ccccn1 [Example 145, 2-((5aS,6aR)-5a-(5-bromo-2-fluorophenyl)-3-thioxo-2,3,5,5a,6,6a-hexahydrocyclopropa[3,4]pyrrolo[1,2-c]imidazol-1-yl)-N-(2-(pyridin-2-yl)ethyl)acetamide] | – | 18.2 % of control | 2.0 % of control
CN(C)C(=O)Cc1[nH]c(=S)n2c1C[C@H](c1c(F)c(F)cc(F)c1F)C2 [Example 30, (R)—N,N-dimethyl-2-(6-(2,3,5,6-tetrafluorophenyl)-3-thioxo-2,5,6,7-tetrahydro-3H-pyrrolo[1,2-c]imidazol-1-yl)acetamide] | 92.0 % of control | 73.2 % of control | –
O=C(Cc1[nH]c(=S)n2c1C[C@@H](c1c(F)ccc(Cl)c1F)C2)NCCn1cccn1 [Example 162, (S)—N-(2-(1H-pyrazol-1-yl)ethyl)-2-(6-(3-chloro-2,6-difluorophenyl)-3-thioxo-2,5,6,7-tetrahydro-3H-pyrrolo[1,2-c]imidazol-1-yl)acetamide] | 87.2 % of control | 31.3 % of control | –
Cn1c(CCC(=O)N2CCCC2)c2n(c1=S)C[C@@H](c1c(F)cccc1F)C2 [Example 264, (R)-3-(6-(2,6-difluorophenyl)-2-methyl-3-thioxo-2,5,6,7-tetrahydro-3H-pyrrolo[1,2-c]imidazol-1-yl)-1-(pyrrolidin-1-yl)propan-1-one] | 98.4 % of control | 54.2 % of control | –
O=C(NCc1[nH]c(=S)n2c1C[C@@H](c1c(F)ccc(Cl)c1F)C2)c1cccnc1 [Example 223, (S)—N-((6-(3-chloro-2,6-difluorophenyl)-3-thioxo-2,5,6,7-tetrahydro-3H-pyrrolo[1,2-c]imidazol-1-yl)methyl)nicotinamide] | 42.7 % of control | 7.2 % of control | –
O=C(Cc1[nH]c(=S)n2c1C[C@@H](c1c(F)ccc(Br)c1F)C2)N[C@@H]1CCOC1 [Example 90, 2-((S)-6-(3-bromo-2,6-difluorophenyl)-3-thioxo-2,5,6,7-tetrahydro-3H-pyrrolo[1,2-c]imidazol-1-yl)-N—((R)-tetrahydrofuran-3-yl)acetamide] | – | 9.9 % of control | 0.4 % of control
Cn1c(CCC(=O)Nc2ccccn2)c2n(c1=S)C[C@@H](c1c(F)cccc1F)C2 [Example 269, (R)-3-(6-(2,6-difluorophenyl)-2-methyl-3-thioxo-2,5,6,7-tetrahydro-3H-pyrrolo[1,2-c]imidazol-1-yl)-N-(pyridin-2-yl)propanamide] | 105.6 % of control | 83.7 % of control | –
Cn1c(CCC(=O)O)c2n(c1=S)C[C@@H](c1c(F)c(F)cc(F)c1F)C2 [Example 260, (R)-3-(2-methyl-6-(2,3,5,6-tetrafluorophenyl)-3-thioxo-2,5,6,7-tetrahydro-3H-pyrrolo[1,2-c]imidazol-1-yl)propanoic Acid] | 84.1 % of control | 26.5 % of control | –
O=C(NCc1[nH]c(=S)n2c1C[C@@H](c1c(F)ccc(Cl)c1F)C2)C1CC1 [Example 220, (S)—N-((6-(3-chloro-2,6-difluorophenyl)-3-thioxo-3,5,6,7-tetrahydro-2H-pyrrolo[1,2-c]imidazol-1-yl)methyl)cyclopropanecarboxamide] | 76.5 % of control | 17.7 % of control | –
CS(=O)(=O)CCNC(=O)Cc1[nH]c(=S)n2c1C[C@H](c1c(F)ccc(Br)c1F)C2 [Example 118, (R)-2-(6-(3-bromo-2,6-difluorophenyl)-3-thioxo-2,5,6,7-tetrahydro-3H-pyrrolo[1,2-c]imidazol-1-yl)-N-(2-(methylsulfonyl)ethyl)acetamide] | 89.2 % of control | 49.0 % of control | –
O=C(Cc1[nH]c(=S)n2c1C[C@@H](c1c(F)ccc(Cl)c1F)C2)NC1CCS(=O)(=O)CC1 [Example 112, (S)-2-(6-(3-chloro-2,6-difluorophenyl)-3-thioxo-2,5,6,7-tetrahydro-3H-pyrrolo[1,2-c]imidazol-1-yl)-N-(1,1-dioxidotetrahydro-2H-thiopyran-4-yl)acetamide] | 9.9 % of control | 0 % of control | –

The remaining lines, values ahead:

Plasma (0.01 μM), activity in % of control | Plasma (0.1 μM), activity in % of control | Plasma (1 μM), activity in % of control | SMILES
92.8 % of control | 51.4 % of control | – | Cn1c(CC(N)=O)c2n(c1=S)C[C@@]1(c3cc(Br)ccc3F)C[C@@H]21 [Example 280, 2-((5aS,6aR)-5a-(5-bromo-2-fluorophenyl)-2-methyl-3-thioxo-2,3,5,5a,6,6a-hexahydrocyclopropa[3,4]pyrrolo[1,2-c]imidazol-1-yl)acetamide]
94.4 % of control | 33.2 % of control | – | Cn1c(CC(=O)NC2CCOCC2)c2n(c1=S)C[C@@H](c1c(F)cccc1F)C2 [Example 447, (R)-2-(6-(2,6-difluorophenyl)-2-methyl-3-thioxo-2,5,6,7-tetrahydro-3H-pyrrolo[1,2-c]imidazol-1-yl)-N-(tetrahydro-2H-pyran-4-yl)acetamide]
84.2 % of control | 62.0 % of control | – | Cn1c(CC(=O)N[C@@H]2CCCOC2)c2n(c1=S)C[C@@H](c1c(F)c(F)cc(F)c1F)C2 [Example 278, 2-((R)-2-methyl-6-(2,3,5,6-tetrafluorophenyl)-3-thioxo-2,5,6,7-tetrahydro-3H-pyrrolo[1,2-c]imidazol-1-yl)-N—((R)-tetrahydro-2H-pyran-3-yl)acetamide]
92.4 % of control | 44.8 % of control | – | Cn1c(CC(=O)N2CC[C@H](C#N)C2)c2n(c1=S)C[C@@H](c1c(F)ccc(F)c1F)C2 [Example 348, (S)-1-(2-((R)-2-methyl-3-thioxo-6-(2,3,6-trifluorophenyl)-2,5,6,7-tetrahydro-3H-pyrrolo[1,2-c]imidazol-1-yl)acetyl)pyrrolidine-3-carbonitrile]
25.3 % of control | 2.2 % of control | – | CN(Cc1cnn(C)c1)C(=O)Cc1c2n(c(=S)n1C)C[C@H](c1c(F)ccc(Cl)c1F)C2 [Example 430, (S)-2-(6-(3-chloro-2,6-difluorophenyl)-2-methyl-3-thioxo-2,5,6,7-tetrahydro-3H-pyrrolo[1,2-c]imidazol-1-yl)-N-methyl-N-((1-methyl-1H-pyrazol-4-yl)methyl)acetamide]
87.7 % of control | 60.5 % of control | – | Cn1c(CC(=O)N[C@H]2CCOC2)c2n(c1=S)C[C@H](c1c(F)ccc(F)c1F)C2 [Example 417, 2-((S)-2-methyl-3-thioxo-6-(2,3,6-trifluorophenyl)-2,5,6,7-tetrahydro-3H-pyrrolo[1,2-c]imidazol-1-yl)-N—((S)-tetrahydrofuran-3-yl)acetamide]
85.7 % of control | 28.2 % of control | – | Cn1cc(NC(=O)Cc2c3n(c(=S)n2C)C[C@H](c2c(F)ccc(Cl)c2F)C3)cn1 [Example 350, (S)-2-(6-(3-chloro-2,6-difluorophenyl)-2-methyl-3-thioxo-2,5,6,7-tetrahydro-3H-pyrrolo[1,2-c]imidazol-1-yl)-N-(1-methyl-1H-pyrazol-4-yl)acetamide]
101.2 % of control | 53.3 % of control | – | Cn1c(CCN[C@@H]2CCOC2)c2n(c1=S)C[C@@]1(c3cc(Br)ccc3F)C[C@@H]21 [Example 359, (5aS,6aR)-5a-(5-bromo-2-fluorophenyl)-2-methyl-1-(2-(((R)-tetrahydrofuran-3-yl)amino)ethyl)-5,5a,6,6a-tetrahydrocyclopropa[3,4]pyrrolo[1,2-c]imidazole-3(2H)-thione]
